From PubChem BioAssay AID256 (DTP/NCI, 2004)
Inconclusive results and toxic doses are left out. How the source made its calls: active means survival T/C of 150% or more; inactive means T/C below 125% in these data.

Test system: CD2F1 mice, L1210 leukemia ip, survival T/C
Experiment: NCI In Vivo Anticancer Drug Screen. Data for tumor model L1210 Leukemia (intraperitoneal) in CD2F1 (CDF1) mice
Details: higher = longer survival
In short: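 Tumor-bearing mice (transplanted tumor) were split into treated and vehicle control groups, and the measured endpoint of each treated group was divided by that of its vehicle controls.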

[1] = endpoint: mean survival time, dose: 100.0 mg/kg/injection, schedule: Q04DX003 (ip), vehicle: saline with Tween-80
[2] = endpoint: mean survival time, dose: 200.0 mg/kg/injection, schedule: Q04DX003 (ip), vehicle: saline with Tween-80
[3] = endpoint: mean survival time, dose: 400.0 mg/kg/injection, schedule: Q04DX003 (ip), vehicle: saline with Tween-80
[4] = endpoint: mean survival time, dose: 100.0 mg/kg/injection, schedule: Q04DX003 (ip), vehicle: saline
[5] = endpoint: mean survival time, dose: 200.0 mg/kg/injection, schedule: Q04DX003 (ip), vehicle: saline
[6] = endpoint: mean survival time, dose: 400.0 mg/kg/injection, schedule: Q04DX003 (ip), vehicle: saline
[7] = endpoint: mean survival time, dose: 50.0 mg/kg/injection, schedule: Q01DX009 (ip), vehicle: saline with Tween-80
[8] = endpoint: mean survival time, dose: 100.0 mg/kg/injection, schedule: Q01DX009 (ip), vehicle: saline with Tween-80
[9] = endpoint: mean survival time, dose: 200.0 mg/kg/injection, schedule: Q01DX009 (ip), vehicle: saline with Tween-80
[10] = endpoint: mean survival time, dose: 100.0 mg/kg/injection, schedule: Q01DX001 (ip), vehicle: saline with Tween-80
[11] = endpoint: mean survival time, dose: 200.0 mg/kg/injection, schedule: Q01DX001 (ip), vehicle: saline with Tween-80
[12] = endpoint: mean survival time, dose: 400.0 mg/kg/injection, schedule: Q01DX001 (ip), vehicle: saline with Tween-80

Measured: T/C

S=C(NC1CCCCC1)N1CCC(CCCC2CCN(C(=S)NC3CCCCC3)CC2)CC1
inactive: [1] 87 % of control | [2] 94 % of control | [3] 102 % of control

Oc1ccccc1C1=CCCCCC1
inactive: [4] 95 % of control | [5] 101 % of control | [6] 104 % of control

O=C(/C(=N\O)c1ccc(Cl)cc1)c1ccc(Cl)cc1
inactive: [1] 95 % of control | [2] 87 % of control

COc1ccccc1OCCN1Cc2ccccc2C1
inactive: [7] 94 % of control | [8] 100 % of control | [9] 97 % of control

COC(=O)C1CC2C(=O)CCCCCCC2C1O (stereo not drawn)
inactive: [10] 93 % of control | [11] 101 % of control | [12] 98 % of control

c1ccc2c(c1)NCCN2
inactive: endpoint: mean survival time, dose: 25.0 mg/kg/injection, schedule: Q01DX001 (ip), vehicle: saline + alcohol 100 % of control | endpoint: mean survival time, dose: 50.0 mg/kg/injection, schedule: Q01DX001 (ip), vehicle: saline + alcohol 100 % of control | endpoint: mean survival time, dose: 100.0 mg/kg/injection, schedule: Q01DX001 (ip), vehicle: saline + alcohol 106 % of control

OC(c1ccc(Cl)cc1)c1ccc(Cl)cc1
inactive: [10] 105 % of control | [11] 90 % of control | [12] 109 % of control

Cc1ccc(-c2cc(-c3ccccc3)n(-c3ccccc3)n2)cc1
inactive: [1] 101 % of control | [2] 100 % of control | [3] 95 % of control

CCCCCCCCCCCC(=O)[O][Pb]([CH2]C)([CH2]C)[CH2]C
inactive: endpoint: mean survival time, dose: 3.13 mg/kg/injection, schedule: Q01DX009 (ip), vehicle: saline with Tween-80 87 % of control | endpoint: mean survival time, dose: 6.25 mg/kg/injection, schedule: Q01DX009 (ip), vehicle: saline with Tween-80 104 % of control

S=C1CCCCN1
inactive: endpoint: median survival time, dose: 25.0 mg/kg/injection, schedule: Q01DX009 (ip), vehicle: distilled water + alcohol 96 % of control | endpoint: median survival time, dose: 50.0 mg/kg/injection, schedule: Q01DX009 (ip), vehicle: distilled water + alcohol 94 % of control | endpoint: median survival time, dose: 100.0 mg/kg/injection, schedule: Q01DX009 (ip), vehicle: distilled water + alcohol 106 % of control | endpoint: median survival time, dose: 200.0 mg/kg/injection, schedule: Q01DX009 (ip), vehicle: distilled water + alcohol 112 % of control

COC1OC2COC(C)(c3ccccc3)OC2C(O)C1[NH-].COC1OC2COC(C)(c3ccccc3)OC2C(O)C1[NH-].[Cl][Pt+2][Cl] (stereo not drawn)
inactive: endpoint: mean survival time, dose: 12.5 mg/kg/injection, schedule: Q04DX003 (ip), vehicle: saline 93 % of control | endpoint: mean survival time, dose: 25.0 mg/kg/injection, schedule: Q04DX003 (ip), vehicle: saline 96 % of control | endpoint: mean survival time, dose: 50.0 mg/kg/injection, schedule: Q04DX003 (ip), vehicle: saline 96 % of control | [4] 95 % of control | [5] 102 % of control

COc1ccc(OCCOC(=O)Nc2cc(Cl)c(OC)cc2OC)cc1
inactive: endpoint: mean survival time, dose: 12.5 mg/kg/injection, schedule: Q01DX009 (ip), vehicle: saline with Tween-80 106 % of control | endpoint: mean survival time, dose: 25.0 mg/kg/injection, schedule: Q01DX009 (ip), vehicle: saline with Tween-80 103 % of control | [7] 106 % of control | [8] 92 % of control | [9] 92 % of control

C1=CC2CC2C1 (stereo not drawn)
inactive: endpoint: median survival time, dose: 50.0 mg/kg/injection, schedule: Q04DX002 (ip), vehicle: saline with Tween-80 88 % of control | endpoint: median survival time, dose: 100.0 mg/kg/injection, schedule: Q04DX002 (ip), vehicle: saline with Tween-80 88 % of control | endpoint: median survival time, dose: 200.0 mg/kg/injection, schedule: Q04DX002 (ip), vehicle: saline with Tween-80 88 % of control | endpoint: median survival time, dose: 400.0 mg/kg/injection, schedule: Q04DX002 (ip), vehicle: saline with Tween-80 88 % of control

CC1=C(N=[N+]=[N-])C(=O)c2ccccc2C1=O
inactive: endpoint: mean survival time, dose: 100.0 mg/kg/injection, schedule: Q04DX002 (ip), vehicle: saline with Tween-80 91 % of control | endpoint: mean survival time, dose: 200.0 mg/kg/injection, schedule: Q04DX002 (ip), vehicle: saline with Tween-80 100 % of control

CCOC1OC(C(O)CO)C(O)C(O)C1O (stereo not drawn)
inactive: [4] 101 % of control | [5] 103 % of control | [6] 101 % of control
